We go through one compound from publication PMC11583597, “Brain uptake pharmacokinetics of albiglutide, dulaglutide, tirzepatide, and DA5-CH in the search for new treatments of Alzheimer’s and Parkinson’s diseases” (Tissue Barriers, 2023).

A short description of series [1]: In vivo stability of 125I/14C-IRAs in brain (acid precipitation). Also noted: species or system male CD-1 mice. Conditions: mouse, iv. The procedure: (§1) We measured the stability of the radiolabeled IRAs in brain and blood. Following anesthetization, arterial blood and whole brain were taken at two time points (10 or 60 min) after iv injection of 3 × 10^5 cpm-1×10^6 cpm of ^125I/^14C-IRA in 0.2 ml of BSA/LR. The blood samples were allowed to clot, centrifuged at 3200 ×g for 10 min, and 50 μl of the separated serum was added to 250 μl of BSA-LR. Samples were combined with equal volume 30% TCA (300 μl), mixed, and then centrifuged for 10 min at 5400 ×g. Brains were homogenized in 800 μl of BSA-LR with a bead beater for 30 sec at 4800 rpm twice. Following centrifugation at 5400 ×g for 15 min, a portion of the resulting supernatant was added to an equal volume of 30% TCA, mixed, and then centrifuged at 5400 ×g for 10 min. The radioactivity in the resulting supernatant and pellet (Sup and Pel fractions) for serum and brain was calculated separately, and the percent of radioactivity in the precipitate was calculated using the following equation:(1) %AcidPrecip=100×Pel/Sup+Pel
(§2) To correct for degradation that might have occurred during the processing, ^125I/^14C-IRA was added to non-radioactive arterial whole blood or to whole brain and processed as above. The biological samples were corrected for degradation during processing by dividing their values by those for processing control (Pcon) values and multiplying by 100. This can sometimes result in a value greater than 100%.
(§3) Immediately after counting the radioactivity, the blood and brains from the 10 min and 6 h time points were processed as described in Section 2.5 for in vivo stability. For further comparison, data from the 1 h time point were taken from the original pharmacokinetic uptake study. The ^125I-IRA brain % acid precipitation (%AP) was divided by the ^125I-IRA serum %AP at each time point to calculate the %AP B/S ratio. This value was multiplied by the B/S ratio for each ^125I-IRA to correct for degradation over the 10 min, 1 h, or 6 h time periods. Corrected AP B/S ratios were then corrected for vascular space by subtracting the ^99mTc-Alb B/S ratio within each mouse for the 10 min and 6 h time points (AP corrected delta B/S ratio). For the 1 h time point, the average ^99mTc-Alb B/S ratio (10.03 μl/g) at 10 min across all ^125I-IRAs was used for correction. The AP corrected delta B/S ratio for each ^125I-IRA was then multiplied by the %Inj/ml within each mouse to calculate the AP corrected delta %Inj/g.

Series [2] can be described thus: In vivo stability of 125I/14C-IRAs in blood/serum (acid precipitation). The settings on record: mouse, iv. More on the design: species or system male CD-1 mice. The procedure: as §1, §2, §3
On the set-up of series [3]: species or system male CD-1 mice. The settings on record: mouse, in vivo, iv. The procedure: Following anesthetization, the jugular vein and right carotid artery were exposed. Mice were given a jugular vein injection of 0.2 ml BSA-LR containing 3 × 10^5 cpm-1×10^6 cpm of an ^125I/^14C-labeled IRA and 5 × 10^5 cpm of ^99mTc-Alb. Blood samples were collected from the carotid artery at various time points from 1 to 60 min after iv injection (see Figure 1). Mice were then decapitated, and their brains were removed and weighed. After clotting, the arterial blood was centrifuged at 3200 ×g for 10 min. Levels of radioactivity in serum (50 μl) and brain were measured in a gamma counter for ^125I and ^99mTc for 3 min. After ^99mTc decay, ^14C-DA5-CH samples were solubilized with Solvable (Sigma), transferred to scintillation vials containing Ecoscint (National Diagnostics) and ^14C was measured in a beta counter. Sample injection checks were taken throughout the course of the study to calculate the mean injected cpm/mouse. To determine the rate of ^125I/^14C-IRA clearance from the serum, the results were expressed as the percentage of an injected dose in each ml of serum (%Inj/ml), which was calculated by dividing the cpm in a ml of serum (cpm/ml serum) by the cpm injected into the mouse (cpm/Inj):
(2) %Inj/ml=100×cpm/mlserum/meancpm/Inj
The log(%Inj/ml) was plotted against time to calculate the rate of clearance from the serum. To calculate the half-time clearance in minutes, the inverse slope […] of the curve for each IRA was multiplied by 0.301 (log10[2]). The blood and brain cpm data were used for the measurement of brain influx and initial volume of distribution in brain as described in Section 2.7.

Series [4] in a line: Long-term (6 h) measurement of brain uptake. The settings on record: mouse, in vivo, iv. In kind it is in vivo, male CD-1 mice. The procedure: Substances that are enzymatically stable in blood and have slow clearance from the circulation can slowly enter the brain using the extracellular pathways.[63],[64] […] Albumin enters the brain by extracellular pathways,[70] and so we used albumin in two ways: we used ^99mTc-Alb circulating for 10 min to measure vascular space and ^99mTc-Alb circulating for 6 h to measure brain uptake by extracellular pathways. This is similar to the time-differential methodology developed by Poduslo and Curran to measure a substance’s vascular space and its uptake rate.[71] Following anesthetization, the jugular vein and right carotid artery were exposed. Mice were given an iv injection of 0.1% BSA-LR containing 1 × 10^6 cpm of ^125I-IRA or 5 × 10^5 cpm of ^99mTc-Alb, which circulated for 6 h. Mice receiving only the ^125I-IRA were given an injection of 5 × 10^5 cpm of ^99mTc-Alb 10 min prior to the end of the 6 h circulation time to act as a vascular marker. A separate set of mice received an iv injection of both 1 × 10^6 cpm of ^125I-IRA and 5 × 10^5 cpm of ^99mTc-Alb that circulated for 10 min. Following the 10 min or 6 h circulation time points, blood and brain were collected as described above. Thus, we had B/S ratios for ^99mTc-Alb measuring vascular space (10 min circulation time) and B/S ratios for ^99mTc-Alb measuring vascular space plus uptake by the extracellular pathways (6 h circulation time) which could be compared to the B/S ratios for the ^125I-IRAs after 10 min and 6 h of circulation.
Immediately after counting the radioactivity, the blood and brains from the 10 min and 6 h time points were processed as described in Section 2.5 for in vivo stability. For further comparison, data from the 1 h time point were taken from the original pharmacokinetic uptake study. The ^125I-IRA brain % acid precipitation (%AP) was divided by the ^125I-IRA serum %AP at each time point to calculate the %AP B/S ratio. This value was multiplied by the B/S ratio for each ^125I-IRA to correct for degradation over the 10 min, 1 h, or 6 h time periods. […]

For series [5] the following is noted: human, in vivo; cited from earlier work.

In the case of `CC[C@H](C)[C@H](NC(=O)[C@H](CC(C)C)NC(=O)[C@H](Cc1c[nH]c2ccccc12)NC(=O)[C@H](CCC(N)=O)NC(=O)[C@@H](NC(=O)[C@H](Cc1ccccc1)NC(=O)[C@H](C)NC(=O)[C@H](CCCCNC(=O)COCCOCCNC(=O)COCCOCCNC(=O)CC[C@H](NC(=O)CCCCCCCCCCCCCCCCCCC(=O)O)C(=O)O)NC(=O)[C@H](CCC(N)=O)NC(=O)[C@H](C)NC(=O)[C@@H](NC(=O)[C@H](CCCCN)NC(=O)[C@H](CC(=O)O)NC(=O)[C@H](CC(C)C)NC(=O)C(C)(C)NC(=O)[C@@H](NC(=O)[C@H](CO)NC(=O)[C@H](Cc1ccc(O)cc1)NC(=O)[C@H](CC(=O)O)NC(=O)[C@H](CO)NC(=O)[C@@H](NC(=O)[C@H](Cc1ccccc1)NC(=O)[C@@H](NC(=O)CNC(=O)[C@H](CCC(=O)O)NC(=O)C(C)(C)NC(=O)[C@@H](N)Cc1ccc(O)cc1)[C@@H](C)O)[C@@H](C)O)[C@@H](C)CC)[C@@H](C)CC)C(C)C)C(=O)N[C@@H](C)C(=O)NCC(=O)NCC(=O)N1CCC[C@H]1C(=O)N[C@@H](CO)C(=O)N[C@@H](CO)C(=O)NCC(=O)N[C@@H](C)C(=O)N1CCC[C@H]1C(=O)N1CCC[C@H]1C(=O)N1CCC[C@H]1C(=O)N[C@@H](CO)C(N)=O` [Tirzepatide], in series [1], the “Percentage of labeled IRA intact, Whole Brain, 10 min” value is on record as 100.7 ± 0.0% and the “Percentage of labeled IRA intact, Whole Brain, 60 min” value worked out at 99.73 ± 0.6%. Moreover, in series [2], the “Percentage of labeled IRA intact, Serum, 10 min” value is 100.5 ± 0.0% and the “Percentage of labeled IRA intact, Serum, 60 min” value amounted to 99.65 ± 0.1%. Moreover, the “Half-Time Serum Clearance (t1/2)” value in series [3] was 30.62 min. Besides, in series [4], the “Amount present in brain at 6 h (AP corrected delta %Inj/g)” value came out at 0.005 %Inj/g. Moreover, in series [5], the “half-lives in human serum” value is 111 to 124 h.
